{"source": "paper PMC6362252", "about": "“A cell-free platform for the prenylation of natural products and application to cannabinoid production” (Nature Communications, 2019)", "key": {"[1]": {"target": "T1, cannabidiolic acid synthase (CBDAS); CBDA synthase (Cannabis sativa, UniProt A6P6V9)", "T1 construct": "native signal peptide removed, starts at residue 28 (NPREN...), pPICZalpha, secreted by Pichia pastoris X33, concentrated culture medium (not purified)", "assay": "HPLC of product CBDA", "assay_type": "biochemical", "settings": "concentrated expression medium, 25 µM FAD, 5 mM MgCl2, 5 mM KCl, 50 mM Hepes pH 7.0, 30 °C, nonane overlay"}, "NphB": {"target": "NphB (Streptomyces sp. CL190, UniProt Q4R2T2, A232S/Y288A)", "settings": "M30; otherwise same"}}, "data": [{"smiles": "CCCCCc1cc(O)c(C/C=C(\\C)CCC=C(C)C)c(O)c1C(=O)O", "note": "[cannabigerolic acid]", "values": [{"measurement": "HPLC of product CBDA", "setting": "[1]", "result": "we employed CBDA synthase to convert CBGA into CBDA and CBGVA into CBDVA"}]}, {"smiles": "CCCCCc1cc(O)cc(O)c1C(=O)O", "note": "[olivetolic acid]", "values": [{"measurement": "Km", "setting": "NphB", "result": "200 ± 40", "unit": "µM"}]}]}
